Patent publication US20230123601A1, “PHARMACEUTICAL COMBINATION OF ANTIVIRAL AGENTS TARGETING HBV AND/OR AN IMMUNE MODULATOR FOR TREATMENT OF HBV” (priority 2019, published 2023)

Test system: HBV
Experiment: HBV-DNA levels in serum of AAV/HBV mice (qPCR)
Type: in vivo, C57BL/6 mice
Set-up: HBV-DNA levels in serum: unit not given here
From the text: The AAV-HBV mouse model is generated by injecting C57BL/6 mice with recombinant adeno-associated virus harboring a replicable HBV genome (AAV-HBV). The rAAV8-1.3 HBV ayw virus stock was purchased from Beijing FivePlus Molecular Medicine Institute (Beijing, China). The animals (male, aged 4-5 weeks upon arrival) were purchased from SLAC Laboratory Animal Co. Ltd (Shanghai, China), acclimatized in the animal facility for 5-7 days, and then injected with 1×10^11 vector genome of AAV-HBV (diluted in 200 μL of PBS) through the tail vein. Persistence expression of HBV genome can be established after three weeks, with high levels of HBV viral markers including HBV DNA, HBsAg, and HBeAg in mouse serum. With stable HBV viremia and competent immune system of the C57BL/6 mice, the AAV-HBV mouse model was used to evaluate the in vivo anti-HBV efficacy of the compounds. The in-life part of the AAV-HBV study was conducted through contracted service at Covance Pharmaceutical Research and Development (Shanghai) Co. Ltd. (Covance Shanghai) and the post-life analysis using the serum was performed internally at Roche Innovation Center Shanghai (RICS).
Seven days before compound treatment, blood samples were collected for serum preparation (˜15 μL), and based on HBV DNA, HBsAg levels in serum and body weight, the AAV-HBV infected animals were stratified into the different treatment groups.
Saline (Group 01) and anti-HBV ASO of CMP ID NO: 15_1 at 1.5 or 7.5 mg/kg were dosed sub subcutaneously once a week during Day 0-49 on Days 0, 7, 14, 21, 28, 35, 42 and 49. TLR7 agonist of CMP ID NO: VI 100 mg/kg was administered by oral gavage once every other day during Day 0-55 (QOD) or once weekly during Day 0-49 on Days 0, 7, 14, 21, 28, 35, 42 and 49 (QW). The animals were weekly bled via retro-orbital sinus for sample collection throughout the study.
Initially mice serum was diluted by a factor of 10 (1:10) with Phosphate buffered saline (PBS). DNA was extracted using the MagNA Pure 96 (Roche) robot. 50 μl of the diluted serum was mixed in a processing cartridge with 200 ul MagNA Pure 96 external lysis buffer (Roche, Cat. no. 06374913001) and incubated for 10 minutes. DNA was then extracted using the “MagNA Pure 96 DNA and Viral Nucleic Acid Small Volume Kit” (Roche, Cat. no. 06543588001) and the “Viral NA Plasma SV external lysis 2.0” protocol. DNA elution volume was 50 μl.
Quantification of extracted HBV DNA was performed using a Taqman qPCR machine (ViiA7, life technologies). Each DNA sample was tested in duplicate in the PCR. 5 μl of DNA sample was added to 15 μl of PCR mastermix containing 10 μl TaqMan Gene Expression Master Mix (Applied Biosystems, Cat. no. 4369016), 0.5 μl PrimeTime XL qPCR Primer/Probe (IDT) and 4.5 μl distilled water in a 384 well plate and the PCR was performed using the following settings: UDG Incubation (2 min, 50° C.), Enzyme Activation (10 min, 95° C.) and PCR (40 cycles with 15 sec, 95° for Denaturing and 1 min, 60° C. for annealing and extension). DNA copy numbers were calculated from Ct values based on a HBV plasmid DNA standard curve by the ViiA7 software.
To evaluate the combination of the anti-HBV ASO and the TLR7 agonist in an in vivo system, a mouse model of chronic HBV infection was used. In the AAV/HBV mouse model described in the Materials and Method a persistent HBV infection is established resulting in expression of viral markers (HBsAg, HBeAg, HBV DNA) detectable in plasma. The effect on these viral markers upon treatment with the anti-HBV ASO of CMP ID NO: 15_1 (table 2, and FIG. 4) dosed at 1.5 mg/kg or 7.5 mg/kg and the TLR7 agonist of CMP ID NO: VI (table 3) dosed with […] every other day (QOD) or once weekly (QW) in monotherapy or in combination has been evaluated.

CC[C@H](OC(C)=O)[C@@H]1C[C@@H](O)[C@H](n2c(=O)sc3cnc(N)nc32)O1 [CMP ID NO: VI, [(1S)-1-[(2S,4R,5R)-5-(5-amino-2-oxo-thiazolo[4,5-d]pyrimidin-3-yl)-4-hydroxy-tetrahydrofuran-2-yl]propyl] acetate]
HBV-DNA levels in serum (TLR7 100 mg/kg QOD, D0): 7.69 ± 0.19
HBV-DNA levels in serum (TLR7 100 mg/kg QOD, D7): 5.74 ± 0.62
HBV-DNA levels in serum (TLR7 100 mg/kg QOD, D14, 100 mg/kg): 5.73 ± 1.2
HBV-DNA levels in serum (TLR7 100 mg/kg QOD, D21): 5.55 ± 0.32
HBV-DNA levels in serum (TLR7 100 mg/kg QOD, D28): 5.23 ± 1.02
HBV-DNA levels in serum (TLR7 100 mg/kg QOD, D35): 4.69 ± 0.71
HBV-DNA levels in serum (TLR7 100 mg/kg QOD, D42): 4.72 ± 0.76
HBV-DNA levels in serum (TLR7 100 mg/kg QOD, D49, 100 mg/kg): 4.5 ± 0.55
HBV-DNA levels in serum (TLR7 100 mg/kg QOD, D56): 4.59 ± 0.65
HBV-DNA levels in serum (TLR7 100 mg/kg QOD, D63, 100 mg/kg): 5.3 ± 1.21
HBV-DNA levels in serum (TLR7 100 mg/kg QOD, D70): 5.95 ± 1.17
HBV-DNA levels in serum (TLR7 100 mg/kg QOD, D77): 6.01 ± 1.17
HBV-DNA levels in serum (TLR7 100 mg/kg QOD, D84): 6.26 ± 1.08
HBV-DNA levels in serum (TLR7 100 mg/kg QOD, D91): 5.81 ± 1.09
HBV-DNA levels in serum (TLR7 100 mg/kg QOD, D98): 6.02 ± 1.17
HBV-DNA levels in serum (TLR7 100 mg/kg QOD, D105): 6.23 ± 1.29
HBV-DNA levels in serum (TLR7 100 mg/kg QOD, D111): 6.77 ± 0.64
HBV-DNA levels in serum (TLR7 100 mg/kg QW, D0, 100 mg/kg): 7.68 ± 0.2
HBV-DNA levels in serum (TLR7 100 mg/kg QW, D7): 7.15 ± 0.67
HBV-DNA levels in serum (TLR7 100 mg/kg QW, D14): 7.14 ± 0.47
HBV-DNA levels in serum (TLR7 100 mg/kg QW, D21): 6.65 ± 0.75
HBV-DNA levels in serum (TLR7 100 mg/kg QW, D28, 100 mg/kg): 6.1 ± 1.25
HBV-DNA levels in serum (TLR7 100 mg/kg QW, D35): 6.61 ± 0.98
HBV-DNA levels in serum (TLR7 100 mg/kg QW, D42, 100 mg/kg): 6.4 ± 0.84
HBV-DNA levels in serum (TLR7 100 mg/kg QW, D49): 6.27 ± 0.89
HBV-DNA levels in serum (TLR7 100 mg/kg QW, D56): 6.74 ± 0.64
HBV-DNA levels in serum (TLR7 100 mg/kg QW, D63, 100 mg/kg): 6.72 ± 0.7
HBV-DNA levels in serum (TLR7 100 mg/kg QW, D70, 100 mg/kg): 6.8 ± 0.64
HBV-DNA levels in serum (TLR7 100 mg/kg QW, D77): 6.95 ± 0.53
HBV-DNA levels in serum (TLR7 100 mg/kg QW, D84): 6.87 ± 0.49
HBV-DNA levels in serum (TLR7 100 mg/kg QW, D91): 6.59 ± 0.52
HBV-DNA levels in serum (TLR7 100 mg/kg QW, D98, 100 mg/kg): 6.7 ± 0.4
HBV-DNA levels in serum (TLR7 100 mg/kg QW, D105): 6.93 ± 0.43
HBV-DNA levels in serum (TLR7 100 mg/kg QW, D111): 7.07 ± 0.45
HBV DNA rebound, distance to control group (TLR7 agonist QOD or QW monotherapy, follow-up period): ≤ 1 log
reduction of HBV-DNA (TLR7 agonist alone): only reached the LLOQ when dosed every other day (QOD)
timing of HBV DNA rebound (TLR7 agonist monotherapy): occurred sooner after the end of treatment than it did in the anti-HBV ASO treated groups
maximal reduction of HBV-DNA (TLR7 agonist monotherapy, QW dosing): around 1.5 log
